# In ChEMBL document CHEMBL5634179, “Phenylhydrazone Alkaloids from the Deep-Sea Cold Seep Derived Fungus Talaromyces amestolkiae HDN21-0307” (J Nat Prod, 2024):
# Where a name gives a salt, the structure may show the parent alone.
# System: Acinetobacter baumannii
# Test: Antibacterial activity against Acinetobacter baumannii AB34 assessed as bacterial growth inhibition
# Assay type: functional
row,SMILES,MIC [µg/mL]
1,COc1cc(O)ccc1N/N=C1/C(=O)[C@@](C)(OC(=O)c2c(C)cc(O)cc2O)C(=O)C2=C1C=C(/C=C/C(=O)O)OC2,> 150
2,COc1cc(O)ccc1N/N=C1\C(=O)C=C(Cc2ccccc2)NC1=O,> 150
3,COc1cc(O)ccc1N/N=C1/C=Cc2cc(O)cc(O)c2C1=O,> 150
4,COc1cc(O)ccc1N/N=C1/C=Cc2cccc(O)c2C1=O,> 150
5,O=C(O)c1cn(C2CC2)c2cc(N3CCNCC3)c(F)cc2c1=O [CIPROFLOXACIN],16

# System: Staphylococcus
# Test: Antibacterial activity against methicillin-resistant coagulase-negative Staphylococcus assessed as bacterial growth inhibition
# Assay type: functional
row,SMILES,MIC [µg/mL]
1,COc1cc(O)ccc1N/N=C1/C(=O)[C@@](C)(OC(=O)c2c(C)cc(O)cc2O)C(=O)C2=C1C=C(/C=C/C(=O)O)OC2,> 150
2,COc1cc(O)ccc1N/N=C1\C(=O)C=C(Cc2ccccc2)NC1=O,> 150
3,COc1cc(O)ccc1N/N=C1/C=Cc2cc(O)cc(O)c2C1=O,64
4,COc1cc(O)ccc1N/N=C1/C=Cc2cccc(O)c2C1=O,128
5,O=C(O)c1cn(C2CC2)c2cc(N3CCNCC3)c(F)cc2c1=O [CIPROFLOXACIN],4

# System: Pseudomonas aeruginosa
# Test: Antibacterial activity against Pseudomonas aeruginosa ATCC 27853 assessed as bacterial growth inhibition
# Assay type: functional
row,SMILES,MIC [µg/mL]
1,COc1cc(O)ccc1N/N=C1/C(=O)[C@@](C)(OC(=O)c2c(C)cc(O)cc2O)C(=O)C2=C1C=C(/C=C/C(=O)O)OC2,> 150
2,COc1cc(O)ccc1N/N=C1\C(=O)C=C(Cc2ccccc2)NC1=O,> 150
3,COc1cc(O)ccc1N/N=C1/C=Cc2cc(O)cc(O)c2C1=O,> 150
4,COc1cc(O)ccc1N/N=C1/C=Cc2cccc(O)c2C1=O,> 150

# System: K562
# Test: Cytotoxicity against human K562 cells by MTT assay
# Assay type: functional, cell-based
row,SMILES,IC50 [µM]
1,COc1cc(O)ccc1N/N=C1/C(=O)[C@@](C)(OC(=O)c2c(C)cc(O)cc2O)C(=O)C2=C1C=C(/C=C/C(=O)O)OC2,> 15
2,COc1cc(O)ccc1N/N=C1\C(=O)C=C(Cc2ccccc2)NC1=O,> 15
3,COc1cc(O)ccc1N/N=C1/C=Cc2cc(O)cc(O)c2C1=O,> 15
4,COc1cc(O)ccc1N/N=C1/C=Cc2cccc(O)c2C1=O,> 15

# System: Bacillus subtilis
# Test: Antibacterial activity against Bacillus subtilis ATCC 6051 assessed as bacterial growth inhibition
# Assay type: functional
row,SMILES,MIC [µg/mL]
1,COc1cc(O)ccc1N/N=C1/C(=O)[C@@](C)(OC(=O)c2c(C)cc(O)cc2O)C(=O)C2=C1C=C(/C=C/C(=O)O)OC2,> 150
2,COc1cc(O)ccc1N/N=C1\C(=O)C=C(Cc2ccccc2)NC1=O,> 150
3,COc1cc(O)ccc1N/N=C1/C=Cc2cc(O)cc(O)c2C1=O,128
4,COc1cc(O)ccc1N/N=C1/C=Cc2cccc(O)c2C1=O,128
5,O=C(O)c1cn(C2CC2)c2cc(N3CCNCC3)c(F)cc2c1=O [CIPROFLOXACIN],0.63

# System: Staphylococcus aureus
# Test: Antibacterial activity against methicillin-resistant Staphylococcus aureus assessed as bacterial growth inhibition
# Assay type: functional
row,SMILES,MIC [µg/mL]
1,COc1cc(O)ccc1N/N=C1/C(=O)[C@@](C)(OC(=O)c2c(C)cc(O)cc2O)C(=O)C2=C1C=C(/C=C/C(=O)O)OC2,> 150
2,COc1cc(O)ccc1N/N=C1\C(=O)C=C(Cc2ccccc2)NC1=O,> 150
3,COc1cc(O)ccc1N/N=C1/C=Cc2cc(O)cc(O)c2C1=O,64
4,COc1cc(O)ccc1N/N=C1/C=Cc2cccc(O)c2C1=O,128

# System: NCI-H446
# Test: Cytotoxicity against human NCI-H446 cells by SRB assay
# Assay type: functional, cell-based
row,SMILES,IC50 [µM]
1,COc1cc(O)ccc1N/N=C1/C(=O)[C@@](C)(OC(=O)c2c(C)cc(O)cc2O)C(=O)C2=C1C=C(/C=C/C(=O)O)OC2,10.2
2,COc1cc(O)ccc1N/N=C1\C(=O)C=C(Cc2ccccc2)NC1=O,4.1
3,COc1cc(O)ccc1N/N=C1/C=Cc2cc(O)cc(O)c2C1=O,> 15
4,COc1cc(O)ccc1N/N=C1/C=Cc2cccc(O)c2C1=O,> 15
5,COc1cccc2c1C(=O)c1c(O)c3c(c(O)c1C2=O)C[C@@](O)(C(=O)CO)C[C@@H]3O[C@H]1C[C@H](N)[C@H](O)[C@H](C)O1 [DOXORUBICIN HYDROCHLORIDE],0.6

# System: not listed separately
# Test: Cytotoxicity against human H446/EP cells by SRB assay
# Assay type: functional, cell-based
row,SMILES,IC50 [µM]
1,COc1cc(O)ccc1N/N=C1/C(=O)[C@@](C)(OC(=O)c2c(C)cc(O)cc2O)C(=O)C2=C1C=C(/C=C/C(=O)O)OC2,> 15
2,COc1cc(O)ccc1N/N=C1\C(=O)C=C(Cc2ccccc2)NC1=O,> 15
3,COc1cc(O)ccc1N/N=C1/C=Cc2cc(O)cc(O)c2C1=O,> 15
4,COc1cc(O)ccc1N/N=C1/C=Cc2cccc(O)c2C1=O,> 15
5,COc1cccc2c1C(=O)c1c(O)c3c(c(O)c1C2=O)C[C@@](O)(C(=O)CO)C[C@@H]3O[C@H]1C[C@H](N)[C@H](O)[C@H](C)O1 [DOXORUBICIN HYDROCHLORIDE],6

# System: Staphylococcus aureus
# Test: Antibacterial activity against Staphylococcus aureus ATCC 29213 assessed as bacterial growth inhibition
# Assay type: functional
row,SMILES,MIC [µg/mL]
1,COc1cc(O)ccc1N/N=C1/C(=O)[C@@](C)(OC(=O)c2c(C)cc(O)cc2O)C(=O)C2=C1C=C(/C=C/C(=O)O)OC2,64
2,COc1cc(O)ccc1N/N=C1\C(=O)C=C(Cc2ccccc2)NC1=O,32
3,COc1cc(O)ccc1N/N=C1/C=Cc2cc(O)cc(O)c2C1=O,128
4,COc1cc(O)ccc1N/N=C1/C=Cc2cccc(O)c2C1=O,128

# System: ASPC1
# Test: Cytotoxicity against human ASPC1 cells by SRB assay
# Assay type: functional, cell-based
row,SMILES,IC50 [µM]
1,COc1cc(O)ccc1N/N=C1/C(=O)[C@@](C)(OC(=O)c2c(C)cc(O)cc2O)C(=O)C2=C1C=C(/C=C/C(=O)O)OC2,> 15
2,COc1cc(O)ccc1N/N=C1\C(=O)C=C(Cc2ccccc2)NC1=O,> 15
3,COc1cc(O)ccc1N/N=C1/C=Cc2cc(O)cc(O)c2C1=O,> 15
4,COc1cc(O)ccc1N/N=C1/C=Cc2cccc(O)c2C1=O,> 15
5,COc1cccc2c1C(=O)c1c(O)c3c(c(O)c1C2=O)C[C@@](O)(C(=O)CO)C[C@@H]3O[C@H]1C[C@H](N)[C@H](O)[C@H](C)O1 [DOXORUBICIN HYDROCHLORIDE],0.21

# System: Bacillus cereus
# Test: Antibacterial activity against Bacillus cereus ATCC 4342 assessed as bacterial growth inhibition
# Assay type: functional
row,SMILES,MIC [µg/mL]
1,COc1cc(O)ccc1N/N=C1/C(=O)[C@@](C)(OC(=O)c2c(C)cc(O)cc2O)C(=O)C2=C1C=C(/C=C/C(=O)O)OC2,> 150
2,COc1cc(O)ccc1N/N=C1\C(=O)C=C(Cc2ccccc2)NC1=O,> 150
3,COc1cc(O)ccc1N/N=C1/C=Cc2cc(O)cc(O)c2C1=O,128
4,COc1cc(O)ccc1N/N=C1/C=Cc2cccc(O)c2C1=O,128
5,O=C(O)c1cn(C2CC2)c2cc(N3CCNCC3)c(F)cc2c1=O [CIPROFLOXACIN],0.063

# System: MDA-MB-231
# Test: Cytotoxicity against human MDA-MB-231 cells by SRB assay
# Assay type: functional, cell-based
row,SMILES,IC50 [µM]
1,COc1cc(O)ccc1N/N=C1/C(=O)[C@@](C)(OC(=O)c2c(C)cc(O)cc2O)C(=O)C2=C1C=C(/C=C/C(=O)O)OC2,> 15
2,COc1cc(O)ccc1N/N=C1\C(=O)C=C(Cc2ccccc2)NC1=O,> 15
3,COc1cc(O)ccc1N/N=C1/C=Cc2cc(O)cc(O)c2C1=O,> 15
4,COc1cc(O)ccc1N/N=C1/C=Cc2cccc(O)c2C1=O,> 15
